Reference: US20070021435A1, “AMINOPYRIMIDINES AS KINASE MODULATORS” (priority 2005, published 2007)

Molecular target: T1, isolated kinase domain of the human c-kit receptor (Homo sapiens, UniProt P10721)
T1 construct: isolated kinase domain of the human c-kit receptor; purchased ProQinase lot SP005
Assay: c-Kit fluorescence polarization kinase assay
Assay type: biochemical
Conditions: 1 nM c-kit, 50 uM ATP, 45 minutes; uncertainty ±10%
Description: The compounds of the present invention are also specific inhibitors of c-Kit. Selection of preferred compounds of Formula I for use as c-Kit inhibitors was performed in the following manner using an in vitro kinase assay to measure inhibition of the isolated kinase domain of the human c-kit receptor in a fluorescence polarization (FP) protocol. The c-kit assay utilized the fluorescein-labeled phosphopeptide and the anti-phosphotyrosine antibody included in the Panvera Phospho-Tyrosine Kinase Kit (Green) supplied by Invitrogen. When c-kit phosphorylated the poly Glu4Tyr, the fluorescein-labeled phosphopeptide was displaced from the anti-phosphotyrosine antibody by the phosphorylated poly Glu4Tyr, thus decreasing the FP value. The c-kit kinase reaction was incubated at room temperature for 45 minutes under the following conditions: 1 nM c-kit (ProQinase, lot SP005), 100 ug/mL poly Glu4Tyr, 50 uM ATP, 5 mM MgCl2, 1 mM DTT, 0.01% Tween-20, 1% DMSO or compound in […], pH 7.5. The kinase reaction was stopped with the addition of EDTA. The fluorescein-labeled phosphopeptide and the anti-phosphotyrosine antibody were added and incubated for 30 minutes at room temperature and fluorescence polarization was read. Data points were an average of triplicate samples.

T1 sequence (P10721 589-937 limits assumed): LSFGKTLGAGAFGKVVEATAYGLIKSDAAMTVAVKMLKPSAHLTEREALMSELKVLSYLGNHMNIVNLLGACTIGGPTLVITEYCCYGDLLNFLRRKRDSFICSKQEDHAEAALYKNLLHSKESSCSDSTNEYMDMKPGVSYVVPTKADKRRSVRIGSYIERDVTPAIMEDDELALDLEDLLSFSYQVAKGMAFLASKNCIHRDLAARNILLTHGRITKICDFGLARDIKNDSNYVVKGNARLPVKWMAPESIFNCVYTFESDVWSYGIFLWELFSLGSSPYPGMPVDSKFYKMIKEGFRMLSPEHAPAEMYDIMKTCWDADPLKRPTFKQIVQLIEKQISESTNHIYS

SMILES | IC50
CO/N=C/c1c(N)ncnc1N1CCN(C(=O)Nc2ccc(OC(C)C)cc2)CC1 [Example 1, 4-[6-Amino-5-(methoxyimino-methyl)-pyrimidin-4-yl]-piperazine-1-carboxylic acid (4-isopropoxy-phenyl)-amide] | 0.0105 µM
CC(C)Oc1ccc(NC(=O)N2CCN(c3ncnc(N)c3/C=N/OCCN3CCOCC3)CC2)cc1 [Example 2, 4-{6-Amino-5-[(2-morpholin-4-yl-ethoxyimino)-methyl]-pyrimidin-4-yl}-piperazine-1-carboxylic acid (4-isopropoxy-phenyl)-amide] | 0.026 µM
CCO/N=C/c1c(N)ncnc1N1CCN(C(=O)Nc2ccc(N3CCCCC3)cc2)CC1 [Example 11, 4-[6-Amino-5-(ethoxyimino-methyl)-pyrimidin-4-yl]-piperazine-1-carboxylic acid (4-piperidin-1-yl-phenyl)-amide] | 0.0051 µM

Molecular target: T2, TrkB (Homo sapiens, UniProt Q16620)
T2 construct: purchased Upstate 14-507M
Assay: TrkB fluorescence polarization kinase assay
Assay type: biochemical
Conditions: 50 nM TrkB, 150 uM ATP, 30 minutes; uncertainty ±10%
Description: The compounds of the present invention are also specific inhibitors of TrkB. Selection of preferred compounds of Formula I for use as TrkB inhibitors was performed in the following manner. The TrkB assay utilized the fluorescein-labeled phosphopeptide and the anti-phosphotyrosine antibody included in the Panvera Phospho-Tyrosine Kinase Kit (Green) supplied by Invitrogen. When TrkB phosphorylated poly Glu4Tyr, the fluorescein-labeled phosphopeptide was displaced from the anti-phosphotyrosine antibody by the phosphorylated poly Glu4Tyr, thus decreasing the FP value. The TrkB kinase reaction was incubated at room temperature for 30 minutes under the following conditions: 50 nM TrkB (Upstate, catalog # 14-507M), 20 ug/mL poly Glu4Tyr, 150 uM ATP, 5 mM MgCl2, 1% compound in DMSO. The kinase reaction was stopped with the addition of EDTA. The fluorescein-labeled phosphopeptide and the anti-phosphotyrosine antibody were added and incubated for 30 minutes at room temperature. Data points were an average of triplicate samples.

T2 sequence (Q16620 526-822 limits assumed): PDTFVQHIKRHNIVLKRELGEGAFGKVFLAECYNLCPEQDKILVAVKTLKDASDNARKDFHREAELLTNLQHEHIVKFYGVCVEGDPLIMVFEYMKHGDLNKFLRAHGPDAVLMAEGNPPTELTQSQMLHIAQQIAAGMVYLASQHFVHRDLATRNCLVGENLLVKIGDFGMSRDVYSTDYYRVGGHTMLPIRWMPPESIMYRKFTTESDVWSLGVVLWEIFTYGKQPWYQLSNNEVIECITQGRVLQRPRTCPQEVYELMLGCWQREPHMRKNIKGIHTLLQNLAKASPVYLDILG

SMILES | IC50
CO/N=C/c1c(N)ncnc1N1CCN(C(=O)Nc2ccc(OC(C)C)cc2)CC1 [Example 1, 4-[6-Amino-5-(methoxyimino-methyl)-pyrimidin-4-yl]-piperazine-1-carboxylic acid (4-isopropoxy-phenyl)-amide] | 0.8 µM
CC(C)Oc1ccc(NC(=O)N2CCN(c3ncnc(N)c3/C=N/OCCN3CCOCC3)CC2)cc1 [Example 2, 4-{6-Amino-5-[(2-morpholin-4-yl-ethoxyimino)-methyl]-pyrimidin-4-yl}-piperazine-1-carboxylic acid (4-isopropoxy-phenyl)-amide] | 10.1 µM
CC(C)Oc1ccc(NC(=O)N2CCN(c3ncnc(N)c3/C=N/OCCCO)CC2)cc1 [Example 3, 4-{6-Amino-5-[(3-hydroxy-propoxyimino)-methyl]-pyrimidin-4-yl}-piperazine-1-carboxylic acid (4-isopropoxy-phenyl)-amide] | 1.3 µM
CO/N=C/c1c(N)ncnc1N1CCN(C(=O)Nc2ccc(N3CCCCC3)cc2)CC1 [Example 4, 4-[6-Amino-5-(methoxyimino-methyl)-pyrimidin-4-yl]-piperazine-1-carboxylic acid (4-piperidin-1-yl-phenyl)-amide] | 4 µM
CO/N=C/c1c(N)ncnc1N1CCN(C(=O)Nc2ccc(N3CCOCC3)cc2)CC1 [Example 5, 4-[6-Amino-5-(methoxyimino-methyl)-pyrimidin-4-yl]-piperazine-1-carboxylic acid (4-morpholin-4-yl-phenyl)-amide] | 8.4 µM
CO/N=C/c1c(N)ncnc1N1CCN(C(=O)Nc2ccc(OC3CCC3)nc2)CC1 [Example 6, 4-[6-Amino-5-(methoxyimino-methyl)-pyrimidin-4-yl]-piperazine-1-carboxylic acid (6-cyclobutoxy-pyridin-3-yl)-amide] | 3.5 µM
CO/N=C/c1c(N)ncnc1N1CCN(C(=O)Cc2ccc(C(C)C)cc2)CC1 [Example 7, 4-Amino-6-{4-[2-(4-isopropyl-phenyl)-acetyl]-piperazin-1-yl}-pyrimidine-5-carbaldehyde O-methyl-oxime] | 0.5 µM
CO/N=C/c1c(N)ncnc1N1CCN(C(=O)Nc2ccc(C(C)C)cc2)CC1 [Example 8, 4-[6-Amino-5-(methoxyimino-methyl)-pyrimidin-4-yl]-piperazine-1-carboxylic acid (4-isopropyl-phenyl)-amide] | 1.1 µM
CCO/N=C/c1c(N)ncnc1N1CCN(C(=O)Nc2ccc(OC(C)C)cc2)CC1 [Example 9, 4-[6-Amino-5-(ethoxyimino-methyl)-pyrimidin-4-yl]-piperazine-1-carboxylic acid (4-isopropoxy-phenyl)-amide (anti-configuration for —C═N—O—)] | 0.6 µM
CCO/N=C\c1c(N)ncnc1N1CCN(C(=O)Nc2ccc(OC(C)C)cc2)CC1 [Example 10, 4-[6-Amino-5-(ethoxyimino-methyl)-pyrimidin-4-yl]-piperazine-1-carboxylic acid (4-isopropoxy-phenyl)-amide (syn-configuration for —C═N—O—)] | 11 µM
CCO/N=C/c1c(N)ncnc1N1CCN(C(=O)Nc2ccc(N3CCCCC3)cc2)CC1 [Example 11, 4-[6-Amino-5-(ethoxyimino-methyl)-pyrimidin-4-yl]-piperazine-1-carboxylic acid (4-piperidin-1-yl-phenyl)-amide] | 2.6 µM
CCO/N=C/c1c(N)ncnc1N1CCN(C(=O)Nc2ccc(OC3CCC3)nc2)CC1 [Example 12, 4-[6-Amino-5-(ethoxyimino-methyl)-pyrimidin-4-yl]-piperazine-1-carboxylic acid (6-cyclobutoxy-pyridin-3-yl)-amide] | 1.6 µM
CCO/N=C/c1c(N)ncnc1N1CCN(C(=O)Cc2ccc(C(C)C)cc2)CC1 [Example 13, 4-Amino-6-{4-[2-(4-isopropyl-phenyl)-acetyl]-piperazin-1-yl}-pyrimidine-5-carbaldehyde O-ethyl-oxime (anti-configuration for —C═N—O—)] | 2.2 µM
CCO/N=C\c1c(N)ncnc1N1CCN(C(=O)Cc2ccc(C(C)C)cc2)CC1 [Example 14, 4-Amino-6-{4-[2-(4-isopropyl-phenyl)-acetyl]-piperazin-1-yl}-pyrimidine-5-carbaldehyde O-ethyl-oxime (syn-configuration for —C═N—O—)] | 1.4 µM
CCO/N=C/c1c(N)ncnc1N1CCN(C(=O)Nc2ccc(N3CCOCC3)cc2)CC1 [Example 15, 4-[6-Amino-5-(ethoxyimino-methyl)-pyrimidin-4-yl]-piperazine-1-carboxylic acid (4-morpholin-4-yl-phenyl)-amide] | 7.76 µM
CC(C)Oc1ccc(NC(=O)N2CCN(c3ncnc(N)c3/C=N/OCC(=O)N3CCOCC3)CC2)cc1 [Example 16, 4-{6-Amino-5-[(2-morpholin-4-yl-2-oxo-ethoxyimino)-methyl]-pyrimidin-4-yl}-piperazine-1-carboxylic acid (4-isopropoxy-phenyl)-amide] | 11.1 µM
CO/N=C/c1c(N)ncnc1N1CCN(C(=O)Nc2ccc(OC3CCCC3)nc2)CC1 [Example 17, 4-[6-Amino-5-(methoxyimino-methyl)-pyrimidin-4-yl]-piperazine-1-carboxylic acid (6-cyclopentyloxy-pyridin-3-yl)-amide] | 0.8 µM
CO/N=C/c1c(N)ncnc1N1CCN(C(=O)Nc2ccc(N3CCCC3)cc2)CC1 [Example 18, 4-[6-Amino-5-(methoxyimino-methyl)-pyrimidin-4-yl]-piperazine-1-carboxylic acid (4-pyrrolidin-1-yl-phenyl)-amide] | 2.6 µM
CO/N=C/c1c(N)ncnc1N1CCN(C(=O)Nc2ccc(C3CCCCC3)cc2)CC1 [Example 19, 4-[6-Amino-5-(methoxyimino-methyl)-pyrimidin-4-yl]-piperazine-1-carboxylic acid (4-cyclohexyl-phenyl)-amide] | 1.68 µM
CO/N=C/c1c(N)ncnc1N1CCN(C(=O)Nc2ccc(Cl)cc2)CC1 [Example 20, 4-[6-Amino-5-(methoxyimino-methyl)-pyrimidin-4-yl]-piperazine-1-carboxylic acid (4-chloro-phenyl)-amide] | 15.6 µM
CO/N=C/c1c(N)ncnc1N1CCN(C(=O)Nc2ccc(Oc3ccccc3)cc2)CC1 [Example 21, 4-[6-Amino-5-(methoxyimino-methyl)-pyrimidin-4-yl]-piperazine-1-carboxylic acid (4-phenoxy-phenyl)-amide] | 7.4 µM
